In ChEMBL document CHEMBL3879915, “Methods of inhibiting PRMT5” (2014):

How the values were obtained:
PRMT5/MEP50 complex = PRMT5/MEP50 complex (Homo sapiens, UniProt O14744); experiment: Inhibition of recombinant human fetal brain FLAG-tagged PRMT5/full length human testis 6His-tagged MEP50 expressed in baculovirus infected insect Sf9 cells using human histone H4 (1 to 15 residues) as substrate preincubated for 30 mins followed by [3H]-SAM addition
[1] = Antiproliferative activity against human Z138 cells assessed as inhibition of cell viability after 5 days by Cell-Titer Glo assay; format: functional, cell-based; details: Z-138, 120 h
[2] = molecular target: Protein arginine N-methyltransferase 5 (Homo sapiens, UniProt O14744); experiment: Inhibition of PRMT5 in human Z138 cells assessed as decrease in di-methyl arginine levels after 96 hrs by Western blot method; format: cell-based
Protein arginine N-methyltransferase 5, sequence (O14744 whole entry): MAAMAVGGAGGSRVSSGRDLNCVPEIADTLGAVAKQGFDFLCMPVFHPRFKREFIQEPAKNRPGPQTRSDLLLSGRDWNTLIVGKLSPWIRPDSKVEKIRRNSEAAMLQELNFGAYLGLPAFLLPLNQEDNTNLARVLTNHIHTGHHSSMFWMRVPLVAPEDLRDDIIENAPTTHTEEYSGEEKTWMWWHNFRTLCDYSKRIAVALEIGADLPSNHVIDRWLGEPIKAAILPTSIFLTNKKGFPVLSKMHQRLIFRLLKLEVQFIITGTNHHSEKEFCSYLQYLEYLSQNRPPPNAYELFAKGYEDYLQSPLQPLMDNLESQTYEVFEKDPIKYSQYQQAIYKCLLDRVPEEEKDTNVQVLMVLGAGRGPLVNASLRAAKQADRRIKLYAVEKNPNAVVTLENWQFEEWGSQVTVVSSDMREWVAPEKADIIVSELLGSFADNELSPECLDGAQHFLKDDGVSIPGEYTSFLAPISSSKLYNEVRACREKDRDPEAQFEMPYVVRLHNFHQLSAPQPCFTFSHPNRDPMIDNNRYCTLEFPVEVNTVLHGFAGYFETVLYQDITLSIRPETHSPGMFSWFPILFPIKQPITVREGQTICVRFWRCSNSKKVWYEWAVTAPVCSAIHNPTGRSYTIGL

PRMT5/MEP50 complex, sequence (O14744 whole entry, the tested form may be a part): as the sequence (O14744 whole entry) above
PRMT5/MEP50 complex, sequence (Q9BQA1 whole entry, further chain, the tested form may be a part): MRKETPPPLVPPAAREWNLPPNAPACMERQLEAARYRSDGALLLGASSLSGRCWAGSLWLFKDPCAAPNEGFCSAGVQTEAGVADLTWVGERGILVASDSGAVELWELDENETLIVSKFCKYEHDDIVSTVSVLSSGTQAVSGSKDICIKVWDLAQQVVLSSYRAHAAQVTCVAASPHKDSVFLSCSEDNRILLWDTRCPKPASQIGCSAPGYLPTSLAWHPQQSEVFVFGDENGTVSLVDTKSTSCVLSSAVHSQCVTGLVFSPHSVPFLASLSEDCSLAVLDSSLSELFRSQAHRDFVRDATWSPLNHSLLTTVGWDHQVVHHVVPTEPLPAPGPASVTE

Compound	IC50 (PRMT5/MEP50 complex)	EC50 [2]	EC50 [1]
O=C(COc1ccccc1S(=O)(=O)N1CCCC1)NCC(O)CN1CCc2ccccc2C1 (centres undefined)	< 100 nM	< 100 nM	101 to 1000 nM
O=c1cc(Nc2ccccc2)ccn1C[C@@H](O)CN1CCc2ccccc2C1	101 to 1000 nM	101 to 1000 nM	> 20000 nM
O=C(COc1ccccc1C1CCCCC1)NCC(O)CN1CCc2ccccc2C1 (centres undefined)	< 100 nM	101 to 1000 nM	1000 to 10000 nM
C[C@@H](Oc1cccc2cccnc12)C(=O)NC[C@H](O)CN1Cc2ccccc2C1	< 100 nM	101 to 1000 nM	1000 to 10000 nM
CN(C)c1ccccc1N1CCN(C[C@H](O)CN2CCc3ccccc3C2)C(=O)C1	101 to 1000 nM	101 to 1000 nM	10000 to 50000 nM
O=C(NCC(O)CN1CCc2ccccc2C1)c1cccnc1 (centres undefined)	101 to 1000 nM	101 to 1000 nM	10000 to 50000 nM
O=C(NC[C@H](O)CN1CCc2ccccc2C1)c1ccccc1	< 100 nM	< 100 nM	1000 to 10000 nM
NS(=O)(=O)c1ccccc1OCC(=O)NCC(O)CN1CCc2ccccc2C1 (centres undefined)	< 100 nM	101 to 1000 nM	1000 to 10000 nM
Cn1cnc2cc(-c3cc(NCC(O)CN4CCc5ccccc5C4)n[nH]3)ccc21 (centres undefined)	101 to 1000 nM	101 to 1000 nM	1000 to 10000 nM
O=C(COc1ccccc1N1CCOCC1)NCC(O)CN1CCc2ccccc2C1 (centres undefined)	< 100 nM	101 to 1000 nM	1000 to 10000 nM
O=C(NCC(O)CN1CCc2ccccc2C1)c1cccc(-c2cccnc2)c1 (centres undefined)	< 100 nM	< 100 nM	1000 to 10000 nM
NC(=O)c1cccc(OCC(=O)NCC(O)CN2CCc3ccccc3C2)c1 (centres undefined)	101 to 1000 nM	101 to 1000 nM	10000 to 50000 nM
Cn1nccc1C(=O)Nc1cccc(OCC(O)CN2CCc3ccccc3C2)c1 (centres undefined)	1000 to 10000 nM	1000 to 10000 nM	> 20000 nM
O=C(COc1c(CN2CCOCC2)ccc2cccnc12)NC[C@H](O)CN1CCc2ccccc2C1	< 100 nM	101 to 1000 nM	10000 to 50000 nM
Cc1ccc(N2CCN(CC(O)CN3CCc4ccccc4C3)C(=O)C2)cc1 (centres undefined)	101 to 1000 nM	101 to 1000 nM	> 20000 nM
O=C1CN(c2cccc3cccnc23)CCN1CC(O)CN1CCc2ccccc2C1 (centres undefined)	< 100 nM	101 to 1000 nM	1000 to 10000 nM
CN(C)c1ccc2cccc(OCC(=O)NC[C@@H](O)CN3CCc4ccccc4C3)c2n1	< 100 nM	101 to 1000 nM	1000 to 10000 nM
CC(=O)Nc1cccc(OCC(=O)NCC(O)CN2CCc3ccccc3C2)c1 (centres undefined)	1000 to 10000 nM	101 to 1000 nM	10000 to 50000 nM
O=C(COc1cccc2cccnc12)NCC(O)CN1Cc2ccccc2C1 (centres undefined)	101 to 1000 nM	1000 to 10000 nM	> 20000 nM
O=C(NC[C@@H](O)CN1CCc2ccccc2C1)c1cccc(NC2CCOCC2)c1	101 to 1000 nM	101 to 1000 nM	1000 to 10000 nM
O=C(COc1ccccc1N1CCOCC1)NC[C@H](O)CN1CCc2ccccc2C1	< 100 nM	< 100 nM	1000 to 10000 nM
O=C(COc1cccc2cccnc12)NC[C@H](O)CN1Cc2ccccc2C1	< 100 nM	101 to 1000 nM	1000 to 10000 nM
O=C1CN(c2cncc(N3CCOCC3)c2)CCN1CC(O)CN1CCc2ccccc2C1 (centres undefined)	< 100 nM	101 to 1000 nM	1000 to 10000 nM
COc1ccc(OCC(=O)NCC(O)CN2CCc3ccccc3C2)cc1 (centres undefined)	101 to 1000 nM	101 to 1000 nM	10000 to 50000 nM

Compound	IC50 (PRMT5/MEP50 complex)	EC50 [2]	EC50 [1]
NC(=O)c1cccc(C(=O)NCC(O)CN2CCc3ccccc3C2)c1 (centres undefined)	101 to 1000 nM	1000 to 10000 nM	> 20000 nM
O=C(COc1ccc2cnn(C3CCNCC3)c2c1)NCC(O)CN1CCc2ccccc2C1 (centres undefined)	< 100 nM	101 to 1000 nM	> 20000 nM
O=C(COc1cccc2cccnc12)NCC(O)CN1CCc2ccccc2C1 (centres undefined)	< 100 nM	< 100 nM	101 to 1000 nM
CC(Oc1ccccc1)C(=O)NCC(O)CN1CCc2ccccc2C1 (centres undefined)	< 100 nM	101 to 1000 nM	1000 to 10000 nM
O=C(COc1ccccc1S(=O)(=O)N1CCC(O)C1)NCC(O)CN1CCc2ccccc2C1 (centres undefined)	< 100 nM	< 100 nM	101 to 1000 nM
Cn1ncc2ccc(-c3cc(NCC(O)CN4CCc5ccccc5C4)ncn3)cc21 (centres undefined)	101 to 1000 nM	101 to 1000 nM	> 20000 nM
O=C(NCC(O)CN1CCc2ccccc2C1)c1ccccc1-c1ccccn1 (centres undefined)	101 to 1000 nM	1000 to 10000 nM	> 20000 nM
CC(=O)Nc1ccccc1OCC(=O)NCC(O)CN1CCc2ccccc2C1 (centres undefined)	101 to 1000 nM	101 to 1000 nM	> 20000 nM
CS(=O)(=O)Nc1cccc(C(=O)NCC(O)CN2CCc3ccccc3C2)c1 (centres undefined)	< 100 nM	101 to 1000 nM	1000 to 10000 nM
O=C(COc1cccc2cccnc12)NC[C@H](O)CN1CCc2ccccc2C1	101 to 1000 nM	101 to 1000 nM	10000 to 50000 nM
O=C(COc1cccc2ccc(N3CCOCC3)nc12)NCC(O)CN1CCc2ccccc2C1 (centres undefined)	< 100 nM	101 to 1000 nM	10000 to 50000 nM
CN(CC(O)CN1CCc2ccccc2C1)c1cccc(CNC2CCOCC2)c1 (centres undefined)	< 100 nM	1000 to 10000 nM	> 20000 nM
CN1CCC(n2ncc3ccc(OCC(=O)NCC(O)CN4CCc5ccccc5C4)cc32)CC1 (centres undefined)	< 100 nM	101 to 1000 nM	> 20000 nM
Cn1cc2ccc(-c3ccnc(NCC(O)CN4CCc5ccccc5C4)c3)cc2n1 (centres undefined)	< 100 nM	101 to 1000 nM	1000 to 10000 nM
Cn1cc2c(OCC(=O)NCC(O)CN3CCc4ccccc4C3)cccc2n1 (centres undefined)	101 to 1000 nM	1000 to 10000 nM	> 20000 nM
O=C(Nc1cccc(OCC(O)CN2CCc3ccccc3C2)c1)c1cncnc1 (centres undefined)	1000 to 10000 nM	1000 to 10000 nM	> 20000 nM
O=C(NC[C@@H](O)CN1CCc2ccccc2C1)c1cccc(-c2ccccn2)c1	< 100 nM	101 to 1000 nM	10000 to 50000 nM
NC(=O)c1ccc(C(=O)NCC(O)CN2CCc3ccccc3C2)cc1 (centres undefined)	101 to 1000 nM	101 to 1000 nM	> 20000 nM
CC(Oc1cccc(CNC2CCCC2)c1)C(O)CN1CCc2ccccc2C1 (centres undefined)	101 to 1000 nM	101 to 1000 nM	1000 to 10000 nM
N#Cc1cccc(OCC(=O)NCC(O)CN2CCc3ccccc3C2)c1 (centres undefined)	101 to 1000 nM	101 to 1000 nM	10000 to 50000 nM
CCN(c1cccc(C(=O)NCC(O)CN2CCc3ccccc3C2)c1C)C1CCOCC1 (centres undefined)	< 100 nM	< 100 nM	1000 to 10000 nM
CN1C(=O)COc2cccc(OCC(=O)NCC(O)CN3CCc4ccccc4C3)c21 (centres undefined)	< 100 nM	101 to 1000 nM	10000 to 50000 nM
COc1ccc2cccc(OCC(=O)NC[C@H](O)CN3CCc4ccccc4C3)c2n1	101 to 1000 nM	101 to 1000 nM	1000 to 10000 nM

The next lines start with results.

IC50 (PRMT5/MEP50 complex)	EC50 [2]	Compound	EC50 [1]
101 to 1000 nM	1000 to 10000 nM	OCc1cccc(-c2cccc(OCC(O)CN3CCc4ccccc4C3)c2)c1 (centres undefined)	10000 to 40000 nM
< 100 nM	1000 to 10000 nM	OC(COc1cccc(-c2ccc3ncn(Cc4ccccc4)c3c2)c1)CN1CCc2ccccc2C1 (centres undefined)	10000 to 40000 nM
1000 to 10000 nM	> 20000 nM	COC(=O)c1cncc(-c2cccc(OCC(O)CN3CCc4ccccc4C3)c2)c1 (centres undefined)	> 20000 nM
101 to 1000 nM	1000 to 10000 nM	OC(COc1cccc(-c2cccc3c2oc2ccccc23)c1)CN1CCc2ccccc2C1 (centres undefined)	10000 to 40000 nM
< 100 nM	101 to 1000 nM	CN1CCC(n2cnc3ccc(-c4cccc(OCC(O)CN5CCc6ccccc6C5)c4)cc32)CC1 (centres undefined)	1000 to 10000 nM
101 to 1000 nM	1000 to 10000 nM	CN(C)c1ccc(-c2cccc(OCC(O)CN3CCc4ccccc4C3)c2)cc1 (centres undefined)	> 20000 nM
101 to 1000 nM	1000 to 10000 nM	CC(=O)c1ccc(-c2cccc(OCC(O)CN3CCc4ccccc4C3)c2)cc1 (centres undefined)	> 20000 nM
101 to 1000 nM	101 to 1000 nM	Cn1cnc2ccc(-c3cc(NCC(O)CN4CCc5ccccc5C4)n[nH]3)cc21 (centres undefined)	> 20000 nM
101 to 1000 nM	1000 to 10000 nM	OC(COc1cccc(-c2ccccc2Oc2ccccc2)c1)CN1CCc2ccccc2C1 (centres undefined)	> 20000 nM
101 to 1000 nM	1000 to 10000 nM	N#Cc1ccc(-c2cccc(OCC(O)CN3CCc4ccccc4C3)c2)cc1 (centres undefined)	10000 to 40000 nM
< 100 nM	101 to 1000 nM	OC(COc1cccc(-c2ccc3ncn(C4CCNCC4)c3c2)c1)CN1CCc2ccccc2C1 (centres undefined)	1000 to 10000 nM
101 to 1000 nM	1000 to 10000 nM	OC(COc1cccc(-c2ccc3nc[nH]c3c2)c1)CN1CCc2ccccc2C1 (centres undefined)	10000 to 40000 nM
< 100 nM	101 to 1000 nM	Cn1cnc2ccc(-c3ccnc(NCC(O)CN4CCc5ccccc5C4)c3)cc21 (centres undefined)	1000 to 10000 nM
101 to 1000 nM	101 to 1000 nM	CC(C)n1cnc2ccc(-c3cccc(OCC(O)CN4CCc5ccccc5C4)c3)cc21 (centres undefined)	10000 to 40000 nM
< 100 nM	101 to 1000 nM	Cn1cnc2ccc(-c3cccc(OCC(O)CN4CCc5ccccc5C4)c3)nc21 (centres undefined)	101 to 1000 nM
< 100 nM	101 to 1000 nM	OC(CNc1cc(-c2ccc3ncn(C4CCNCC4)c3c2)ccn1)CN1CCc2ccccc2C1 (centres undefined)	1000 to 10000 nM
101 to 1000 nM	101 to 1000 nM	Cn1cnc2cnc(-c3cccc(OCC(O)CN4CCc5ccccc5C4)c3)nc21 (centres undefined)	1000 to 10000 nM
101 to 1000 nM	1000 to 10000 nM	OC(COc1cccc(-c2cccnc2F)c1)CN1CCc2ccccc2C1 (centres undefined)	> 20000 nM
101 to 1000 nM	1000 to 10000 nM	Cn1cnc2ccc(-c3cccc(OC[C@@H](O)CN4CCc5ccccc5C4)c3)cc21	1000 to 10000 nM
101 to 1000 nM	10000 to 40000 nM	OC(COc1cccc(-c2cccc(F)c2F)c1)CN1CCc2ccccc2C1 (centres undefined)	10000 to 40000 nM
101 to 1000 nM	1000 to 10000 nM	O=C(c1cccc(-c2cccc(OCC(O)CN3CCc4ccccc4C3)c2)c1)N1CCOCC1 (centres undefined)	> 20000 nM
